Data from publication PMC8968063, “Key features of inhibitor binding to the human mitochondrial pyruvate carrier hetero-dimer” (Molecular Metabolism, 2022).
Read-outs that look alike come from different tables or passages of the source.

How the values were obtained:
human MPC1L/MPC2 complex [1] = target: T1, human MPC1L/MPC2 complex (Homo sapiens, UniProt O95563+P0DKB6); assay: CPM thermostability shift assay, purified MPC1L/MPC2; type: binding; settings: for ΔTm at 100 µM: read-out: ∆Tm, CPM assay (thermal shift compared to no-ligand control); for Tm, CPM assay: unliganded 51.3 ± 0.2, mean ± s.d., 3 biological repeats
T1 construct: eight-histidine tag (C, cleaved yes); TEV protease cleavage site (part stays on MPC2 after digestion) (C, cleaved yes); made in house; host or cells: Saccharomyces cerevisiae SHY15 (mpc triple deletion strain), purified from mitochondria
T1 sequence (P0DKB6 2-136): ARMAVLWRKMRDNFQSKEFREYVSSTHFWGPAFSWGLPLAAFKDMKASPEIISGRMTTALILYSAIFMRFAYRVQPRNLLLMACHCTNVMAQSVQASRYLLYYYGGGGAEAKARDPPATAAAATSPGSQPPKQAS
T1 sequence (O95563 2-127): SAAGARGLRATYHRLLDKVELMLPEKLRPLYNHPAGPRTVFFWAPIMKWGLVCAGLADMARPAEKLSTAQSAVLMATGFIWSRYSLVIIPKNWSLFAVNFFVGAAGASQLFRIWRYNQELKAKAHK
Description: The assessment of ligand binding was performed via shifts in protein thermostability upon binding using thermal denaturation on a rotary quantitative PCR (qPCR) instrument (Qiagen Rotor-Gene Q 2plex HRM, Venlo, Netherlands), as previously described. In this method, cysteine residues, buried within the protein structure, become solvent-exposed during denaturation in a temperature ramp and then react with 7-diethylamino-3-(4-maleimidophenyl)-4-methylcoumarin (CPM) to form fluorescent-adducts. Briefly, a CPM working solution was prepared by diluting the CPM stock (5 mg/mL in dimethyl sulfoxide) 50-fold into assay buffer (20 mM Tris–HCl, pH 7.4, 150 mM NaCl, 0.1% (w/v) LMNG, 0.1 mg/mL TOCL) and incubated for 10 min at room temperature. In each analysis, performed in duplicates or triplicates, 3 μg of purified MPC was diluted into 45 μL of assay buffer containing the desired concentration of the inhibitor then incubated for 10 min on ice. Next, 5 μL of the CPM working solution were added. Samples were incubated on ice for an additional 10 min then subjected to a temperature ramp of 5.6 °C/min. The fluorescence increase was monitored with the HRM channel of the instrument (excitation at 440–480 nm, emission at 505–515 nm). Unfolding profiles were analysed with the Rotor-Gene Q software 2.3, and the peaks of their derivatives were used to determine the apparent melting temperature.

human MPC1L/MPC2 complex [2] = target: T1, human MPC1L/MPC2 complex; assay: nano-DSF thermostability shift assay, purified MPC1L/MPC2; type: binding; settings: inhibitor 100 μM; for Tm, nano-DSF: unliganded 51.9 ± 0.1, mean ± s.d., 2 biological repeats
Description: Ligand binding was also assessed using dye-free nano differential scanning fluorimetry (nano-DSF) to monitor fluorescence changes due to altered environments of tryptophan and tyrosine residues during unfolding. Protein samples in buffer containing 20 mM Tris–HCl pH 7.4, 150 mM NaCl, 0.1% (w/v) LMNG, 0.1 mg/mL TOCL, in the presence or absence of the indicated concentrations of small molecule inhibitors, were loaded into capillary tubes, and a temperature ramp of 5 °C/min was applied. The intrinsic fluorescence was measured using the NanoTemper Prometheus NT.48 (NanoTemper, München, Germany).

[3] = target: T2, recombinant human MPC1L/MPC2 (Homo sapiens, UniProt O95563+P0DKB6); assay: Electrospray mass spectrometry of MPC1L/MPC2 after reaction with inhibitors or sulfhydryl modifiers
T2 construct: MPC1L (2–136); MPC2 (2–137); eight-histidine tag (C, cleaved yes); TEV protease cleavage site (part stays on MPC2 after digestion) (C, cleaved yes); made in house; host or cells: Saccharomyces cerevisiae SHY15 (mpc triple deletion strain), purified from mitochondria
T2 sequence (P0DKB6 2-136 limits assumed): T1 sequence (P0DKB6 2-136)
T2 sequence (O95563 2-127 limits assumed): T1 sequence (O95563 2-127)
Description: Different MPC inhibitors (Table1) or sulfhydryl reagents were first incubated with MPC1L/MPC2 in a folded state, then the protein molecular masses were measured by electrospray mass spectrometry. The MPC subunits (10 μg) were resolved by reverse-phase HPLC on a PLRP-S column (1.0 mm i.d. X 75 mm; VARIAN) using a gradient of 2-propanol in a solvent system compatible with the recovery of membrane proteins (Carroll et al., 2009). The eluate (50 μL/min) was introduced into a QTRAP4000 (SCIEX) mass spectrometer operating in positive ion single MS mode. The instrument was scanned from 700 m/z to 2300 m/z after calibration with ions from a mixture of 1.0 μM of myoglobin and 1.5 μM trypsinogen. Molecular masses were obtained by reconstruction of the spectra of multiply charged ions using PeakView (SCIEX).

[4] = target: T3, human MPC1L/MPC2 hetero-dimer (Homo sapiens, UniProt O95563+P0DKB6); assay: Inhibition of [14C]-pyruvate homo-exchange in MPC1L/MPC2 proteoliposomes; type: biochemical; settings: MPC1L/MPC2 proteoliposomes, 50 μM [14C]-pyruvate homo-exchange, mean ± s.d.; read-out: IC50 of pyruvate transport inhibition
T3 construct: eight-histidine tag (C, cleaved yes); TEV protease cleavage site (part stays on MPC2 after digestion) (C, cleaved yes); made in house; host or cells: Saccharomyces cerevisiae SHY15 (mpc triple deletion strain), purified from mitochondria
T3 sequence (P0DKB6 2-136): T1 sequence (P0DKB6 2-136)
T3 sequence (O95563 2-127): T1 sequence (O95563 2-127)
Description: Egg L-α-phosphatidylcholine 99% (w/v) (Avanti Polar Lipids, AL, USA) and TOCL were mixed in a 20:1 (w/w) ratio, dried under a stream of nitrogen and washed once with methanol before being dried again. Lipids were hydrated in 20 mM Tris–HCl, pH 8.0, 50 mM NaCl to a concentration of 12 mg/mL. Unlabeled pyruvate was added as a freshly made concentrated stock at a final concentration of 5 mM for internalisation. Lipids were solubilised with 1.2% (v/v) pentaethylene glycol monodecyl ether (Sigma) and freshly purified protein was added at a lipid-to-protein ratio of 250:1 (w/w). Samples were incubated on ice for 5 min, then liposomes were formed by the step-wise removal of pentaethylene glycol monodecyl ether by five additions at 20 min intervals of 60 mg Bio-Beads SM-2 (Bio-Rad, Watford, UK) with gentle mixing at 4 °C. A final addition of 480 mg Bio-Beads was incubated with the samples overnight. Proteoliposomes were first separated from the Bio-Beads by passage through empty spin columns (Bio-Rad, Watford, UK) and subsequently pelleted at 120,000×g for 60 min. The proteoliposomes were resuspended with a thin needle in 150 μL of their supernatant after the rest of the supernatant was removed.
The time course of pyruvate homo-exchange was measured at room temperature. The transport was initiated by diluting proteoliposomes 200-fold into external buffer, 20 mM MES, pH 6.4, 50 mM NaCl, containing 50 μM [^14C]-pyruvate (500,000 dpm, Perkin Elmer, MA, USA). The reaction (0–30 s) was terminated by rapid dilution into 8 volumes of ice-cold internal buffer (20 mM Tris–HCl, pH 8.0, 50 mM NaCl), followed by rapid filtration through cellulose nitrate 0.45 μm filters (Millipore, Gillingham, UK) and washing with an additional 8 volumes of buffer. The filters were dissolved in Ultima Gold scintillation liquid (Perkin Elmer, MA, USA) and the radioactivity was counted with a Perkin Elmer Tri-Carb 2800 RT liquid scintillation counter. […] The data analysis was performed with non-linear regression fittings using GraphPad Prism 7.0d ([Inhibitor] vs response, variable slope). The specific uptake rates were calculated based on the amount of protein used in reconstitutions, as estimated from bicinchoninic acid assay. The biological repeats represent independent proteoliposome preparations using protein from independent purifications.

[5] = MPC1L/MPC2 after reaction with compound
[6] = number of covalent adducts from mass increase

COc1cc(C2Oc3cc([C@H]4Oc5cc(O)cc(O)c5C(=O)[C@@H]4O)ccc3OC2CO)ccc1O (stereo partly shown) [Silibinin]
Thermal shift in the CPM assay (human MPC1L/MPC2 complex [1]; compound 1 mM): positive thermal shift | ∆Tm, CPM assay (thermal shift compared to no-ligand control) (human MPC1L/MPC2 complex [1]; inhibitor 100 μM): No thermal shifts | ΔTm at 100 µM (human MPC1L/MPC2 complex [1]; inhibitor 100 μM): 0.1 ± 0.6 °C | Tm, CPM assay (human MPC1L/MPC2 complex [1]; inhibitor 100 μM): 51.4 ± 0.4 °C | ∆Tm, nano-DSF (human MPC1L/MPC2 complex [2]): 0.2 ± 0.3 °C | ∆Tm, nano-DSF (human MPC1L/MPC2 complex [2]; listed as silibinin): No thermal shifts | Tm, nano-DSF (human MPC1L/MPC2 complex [2]): 52.1 ± 0.2 °C

N#C/C(=C/c1ccc(-c2ccc(F)cc2)o1)C(=O)O [Compound 4]
ΔTm at 100 µM (human MPC1L/MPC2 complex [1]; inhibitor 100 μM): 9.1 ± 1.5 °C | Tm, CPM assay (human MPC1L/MPC2 complex [1]; inhibitor 100 μM): 60.4 ± 1.3 °C

CS(=O)(=O)SCCN [MTSEA]
Mass difference (observed vs calculated), MPC1L (2–136) [3, 5]: +149.3 Da | Mass difference (observed vs calculated), MPC1L (5–136) [3, 5]: +149.2 Da | Covalent modification of MPC protomers (molecular mass change) ([3]; folded MPC1L/MPC2 incubated with compound, ESI-MS): modified covalently | Modifications, MPC1L (2–136) [3, 6]: 2 x MTSEA | Modifications, MPC1L (5–136) [3, 6]: 2 x MTSEA | Modifications, MPC2 (2–137) [3, 6]: 1 x MTSEA

C=CCN1C(=O)NC(=O)/C(=C/c2ccc(-c3ccccc3[N+](=O)[O-])o2)C1=O [Compound 13]
ΔTm at 100 µM (human MPC1L/MPC2 complex [1]; inhibitor 100 μM): 7.4 ± 1.9 °C | Tm, CPM assay (human MPC1L/MPC2 complex [1]; inhibitor 100 μM): 58.7 ± 1.7 °C

O=C1CN(/N=C/c2ccc([N+](=O)[O-])o2)C(=O)N1 [Nitrofurantoin, (E)-1-[(5-nitro-2-furyl)methylideneamino]imidazolidine-2,4-dione]
IC50 [4]: 3300 ± 2600 nM

N#C/C(=C/c1ccc(-c2ccc(Br)cc2)o1)C(=O)O [Compound 3]
ΔTm at 100 µM (human MPC1L/MPC2 complex [1]; inhibitor 100 μM): 8.4 ± 1.3 °C | Tm, CPM assay (human MPC1L/MPC2 complex [1]; inhibitor 100 μM): 59.7 ± 1.1 °C

CCN(CC)C(=O)/C(C#N)=C/c1cc(O)c(O)c([N+](=O)[O-])c1 [Entacapone, (2E)-2-cyano-3-(3,4-dihydroxy-5-nitrophenyl)-N,N-diethylprop-2-enamide]
IC50 [4]: 630 ± 53 nM | ∆Tm, nano-DSF (human MPC1L/MPC2 complex [2]): 6.3 ± 1.1 °C | Tm, nano-DSF (human MPC1L/MPC2 complex [2]): 58.2 ± 1.0 °C

CCc1ccc(C(=O)COc2ccc(CC3SC(=O)NC3=O)cc2)nc1 (stereo not shown) [Mitoglitazone, mitoglitazone]
ΔTm at 100 µM (human MPC1L/MPC2 complex [1]; inhibitor 100 μM): 5.4 ± 0.8 °C | Tm, CPM assay (human MPC1L/MPC2 complex [1]; inhibitor 100 μM): 56.7 ± 0.6 °C | ∆Tm, nano-DSF (human MPC1L/MPC2 complex [2]): 1.9 ± 0.5 °C | Tm, nano-DSF (human MPC1L/MPC2 complex [2]): 53.8 ± 0.4 °C

O=C1NC(=O)C(=Cc2ccc(-c3ccccc3[N+](=O)[O-])o2)C(=O)N1 [Compound 11]
Tm, CPM assay (human MPC1L/MPC2 complex [1]; inhibitor 100 μM): 57.7 ± 2.1 °C | ΔTm at 100 µM (human MPC1L/MPC2 complex [1]): 6.4 ± 2.3 °C

N#C/C(=C/c1ccc(-c2cccc([N+](=O)[O-])c2)o1)C(=O)O [Compound 9]
ΔTm at 100 µM (human MPC1L/MPC2 complex [1]; inhibitor 100 μM): 11.7 ± 2 °C | Tm, CPM assay (human MPC1L/MPC2 complex [1]; inhibitor 100 μM): 63.0 ± 1.8 °C

O=C(O)C(=Cc1ccc(-c2ccccc2[N+](=O)[O-])o1)C(=O)O [Compound 10]
∆Tm, CPM assay (thermal shift compared to no-ligand control) (human MPC1L/MPC2 complex [1]; inhibitor 100 μM): No thermal shift | ΔTm at 100 µM (human MPC1L/MPC2 complex [1]; inhibitor 100 μM): -0.1 ± 1.1 °C | Tm, CPM assay (human MPC1L/MPC2 complex [1]; inhibitor 100 μM): 51.2 ± 0.9 °C
